Data published in patent publication US9586914B2, “Modulators of C3a receptors” (THE UNIVERSITY OF QUEENSLAND, priority 2011, dated 2017).
Read-outs that look alike come from different tables or passages of the source.

Legend:
C3a receptor (C3aR) = target: T1, C3a receptor (C3aR) (Homo sapiens, UniProt Q16581); experiment: Competitive binding with [^125I]-C3a in HMDM; settings: for IC50 / pIC50 ± SEM: HMDM
T1 construct: peripheral blood mononuclear cells were isolated from buffy coat (obtained from Australian Red Cross Blood Service, Kelvin Grove); endogenous in cells; host or cells: primary human monocyte-derived macrophages (HMDM) differentiated from CD14+ monocytes of donor buffy coat
T1 sequence (Q16581 1-482): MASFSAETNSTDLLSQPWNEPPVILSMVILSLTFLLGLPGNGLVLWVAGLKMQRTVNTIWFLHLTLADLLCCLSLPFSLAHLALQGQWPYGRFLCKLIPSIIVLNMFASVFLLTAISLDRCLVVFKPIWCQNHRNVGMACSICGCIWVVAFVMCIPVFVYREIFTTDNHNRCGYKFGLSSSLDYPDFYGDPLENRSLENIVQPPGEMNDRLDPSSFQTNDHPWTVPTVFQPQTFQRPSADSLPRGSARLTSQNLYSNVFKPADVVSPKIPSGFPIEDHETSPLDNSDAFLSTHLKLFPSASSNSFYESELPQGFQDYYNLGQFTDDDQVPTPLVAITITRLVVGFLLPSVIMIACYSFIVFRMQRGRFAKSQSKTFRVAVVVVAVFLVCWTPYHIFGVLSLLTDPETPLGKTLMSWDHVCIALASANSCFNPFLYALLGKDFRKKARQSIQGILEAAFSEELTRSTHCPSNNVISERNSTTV
Summary of the method: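 IC50 values are geometric means, with −log IC50 computed per experiment and given as arithmetic mean ± SE. Cells were CD14+ monocytes from buffy-coat PBMC, differentiated to macrophages and used on day 7. Unbound label was removed by GF/B filtration with 3 cold washes in 50 mM Tris-HCl pH 7.4.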

C3aR [1] = target: T2, C3aR (Homo sapiens, UniProt Q16581); experiment: Calcium mobilization assay in HMDM (agonist/antagonist activity); assay type: cell-based
T2 construct: peripheral blood mononuclear cells were isolated from buffy coat (obtained from Australian Red Cross Blood Service, Kelvin Grove); endogenous in cells; host or cells: primary human monocyte-derived macrophages (HMDM) differentiated from CD14+ monocytes of donor buffy coat
T2 sequence (Q16581 1-482): T1 sequence (Q16581 1-482)
Summary of the method: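 Human monocyte-derived macrophages, 5×10^4 cells/well, loaded 1 h at 37 °C with 4 μM Fluo-3 in HBSS/HEPES/probenecid buffer, pH 7.4. Agonist mode: calcium release read 300 s; antagonist mode: 900 s compound preincubation then agonist, read 300 s (ex 485/em 520 nm); compared with hC3a.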

C3aR [2] = target: T2, C3aR; experiment: Desensitization experiments (Ca^2+ efflux after hC3a desensitization); assay type: cell-based; settings: hC3a 3 μM first; second addition of 1 μM compound; HMDM
Protocol: Desensitization experiments were used to measure the selectivity of various ligands for C3aR, since this can help to clarify whether the non-peptidic ligands bind selectively to C3aR over other GPCRs that signal through intracellular calcium release.
The hC3a (3 μM) was administered to human monocyte derived macrophage cells, which produces an efflux of intracellular Ca^2+ that dissipates after 4-5 mins (FIGS. 4A and 4B). A second addition of 3 μM hC3a after 5 mins has no effect, due to desensitization of the receptor through either receptor (C3a receptor) phosphorylation or receptor internalization from the cell surface.

[3] = Table 6, competitive binding with [^125I]-C3a, read-out: pIC50 ± SEM (converted)
[4] = Table 11, [^125I]-C3a, read-out: Receptor Binding Affinity IC50
[5] = Table 11, [^125I]-C3a, read-out: Receptor Binding Affinity pIC50 ± SE (converted)
[6] = Table 9, Ca^2+ mobilization, HMDM, read-out: EC50
[7] = Table 11, Ca^2+ mobilisation, HMDM, read-out: Apparent Antagonist Activity EC50
[8] = Table 6, competitive binding with [^125I]-C3a, read-out: IC50 (converted)
[9] = Table 9, Ca^2+ mobilization, HMDM, read-out: pEC50 ± SEM (converted)
[10] = quoted in text of Example 98, read-out: EC50
[11] = Table 6, competitive binding with [^125I]-C3a
[12] = Table 9, Ca^2+ mobilization, HMDM

Compound	IC50 (C3a receptor (C3aR); [3]) [nM]	IC50 (C3a receptor (C3aR); [4]) [nM]	IC50 (C3a receptor (C3aR); [5]) [nM]	EC50 (C3aR [1]; [6]) [nM]	EC50 (C3aR [1]; [7]) [nM]	EC50 (C3aR [1]; Table 11, Ca^2+ mobilisation, HMDM, read-out: Apparent Antagonist Activity pEC50 ± SE (converted)) [nM]	Ca^2+ efflux on addition after first desensitization with hC3a (selectivity for C3aR over other GPCRs) (C3aR [2])	IC50 (C3a receptor (C3aR); [8]) [nM]	EC50 (C3aR [1]; [9]) [nM]	EC50 (C3aR [1]; [10]) [nM]	pIC50 ± SEM (C3a receptor (C3aR); [11])	pEC50 ± SEM (C3aR [1]; [12])	remaining activity at 20 µM (C3a receptor (C3aR); 1 h, read-out: %[^125I]-C3a binding) [%]	Emax at 10 µM (C3aR [1]; read-out: % agonist) [%]
CC[C@H](C)[C@H](NC(=O)OC(C)(C)C)c1nc(C(=O)N[C@@H](CCCNC(=N)N)C(=O)O)c(C)o1 [Compound 25, Boc-isoleucine-5-methyl-oxazole-arginine-OH]	13.8	15	13.8	45	45	39.8	caused a second efflux of intracellular Ca^2+	–	–	–	–	–	–	–
CC(C)C[C@H](NC(=O)OC(C)(C)C)c1nc(C(=O)NC(CCCNC(=N)N)C(=O)O)co1 (some centres unmarked) [Compound 1, Boc-leucine oxazole-arginine-OH]	19.5	20	19.5	–	19	–	did not produce calcium efflux	20	19.1	19	–	–	–	–
CC[C@H](C)[C@H](NC(=O)c1ccccc1Oc1ccccc1)c1nc(C(=O)N[C@@H](CCCNC(=N)N)C(=O)O)co1 [Compound 18, 2-phenoxy benzoic acid-isoleucine-oxazole-arginine-OH]	–	–	–	54	–	–	caused a second efflux of intracellular Ca^2+	55	–	–	7.26 ± 0.09	7.26 ± 0.08	–	–
CC[C@H](C)[C@H](NC(=O)CCC(=O)c1ccc(-c2ccccc2)cc1)c1nc(C(=O)N[C@@H](CCCNC(=N)N)C(=O)O)co1 [Compound 16, 4-(biphenyl-4-yl)-4-oxobutanoic acid-Isoleucine-Oxazole-Arginine-OH]	–	–	–	–	–	–	did not produce calcium efflux	155	–	8	6.81 ± 0.07	8.12 ± 0.21	–	–
CC[C@H](C)[C@H](NC(=O)c1nccc2ccccc12)c1nc(C(=O)N[C@@H](CCCNC(=N)N)C(=O)O)co1 [Compound 10, Isoquinoline-1-Isoleucine-Oxazole-Arginine-OH]	–	–	–	–	–	–	did not produce calcium efflux	123	40.7	–	–	–	–	–
CC[C@H](C)[C@H](NC(=O)OC(C)(C)C)c1nc(C(=O)N[C@@H](CCCNC(=N)N)C(=O)O)co1 [Compound 2]	–	–	–	–	–	–	did not produce calcium efflux	30	–	27	7.53 ± 0.10	7.57 ± 0.11	–	–
Cc1oc([C@H](CC(C)C)NC(=O)c2cc3ccccc3s2)nc1C(=O)N[C@@H](CCCNC(=N)N)C(=O)O [Compound 27, Benzothiophene-2-carboxylic acid-Leucine-5-Methyl-Oxazole-Arginin]	–	–	–	–	–	–	–	–	–	–	–	–	14	62
